How the values were obtained:
[1] = target: T1, PPT1 Palmitoylprotein thioesterase 1 (P50897) (Homo sapiens, UniProt P50897); experiment: SILAC RP-ABPP; format: cell-based; conditions: SILAC H/L
T1 construct: In Situ Labelling of Cells with Hydrazine Probes for MS Experiments; endogenous in cells; host or cells: HEK293T and/or MDA-MB-231
T1 sequence (P50897 28-306): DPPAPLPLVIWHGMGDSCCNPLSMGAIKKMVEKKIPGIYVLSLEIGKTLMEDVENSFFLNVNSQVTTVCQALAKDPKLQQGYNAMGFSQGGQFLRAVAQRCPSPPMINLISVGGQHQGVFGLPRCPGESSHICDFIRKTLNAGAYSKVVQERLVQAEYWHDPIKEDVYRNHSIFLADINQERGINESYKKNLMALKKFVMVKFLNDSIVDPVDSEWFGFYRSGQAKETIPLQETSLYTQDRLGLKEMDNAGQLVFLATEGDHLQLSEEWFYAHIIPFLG
Experimental: (§1) For MS-based experiments, labelling was performed in a similar manner as described above in Example 2, maintaining the same concentrations of probes. Modifications to this protocol included using isotopically ‘light’ and ‘heavy’ SILAC cells that were also grown to near complete confluence prior to treatment. Isotopically light cells were treated with the non-clickable hydrazine probe (at the same concentration as the probe in ‘enrichment’ experiments) or the probe in the presence of 10-fold excess non-clickable hydrazine probe as a competitor (in ‘competition’ experiments). Isotopically heavy cells were treated with the probe for both types of experiments. These treatments were performed in non-SILAC media. Following treatments, cells were washed with cold PBS to remove the probe-containing media, harvested by scraping, collected by centrifugation (1,400 g, 3 min, 4° C.), washed again by resuspension in cold PBS and frozen as pellets at −80° C. until use.
(§2) The fractionated equimolar mixture of heavy and light soluble proteomes (1-1.5 mg) was diluted to 1 mL in PBS. Click reactions were scaled accordingly (except for biotin-azide) to maintain final concentrations of 0.1 mM TBTA, 1 mM CuSO4, 100 μM biotin-azide (10 mM in DMSO) and 1 mM TCEP. The mixture was vortexed and placed on a rotator at ambient temperature for 1 hour. Sequential addition of and mixture with pre-chilled methanol (MeOH, 2 mL), chloroform (CHCl3, 0.5 mL) and PBS (1 mL) on ice quenched the reaction. The precipitated proteome was centrifuged (5,000 g, 10 min, 4° C.) to fractionate the protein interphase from the organic and aqueous solvent layers. The protein pellet was washed with cold 1:1 MeOH:CHCl3 (3×1 mL), mildly sonicated in cold 4:1 MeOH:CHCl3 (2.5 mL) and pelleted once more by centrifugation (5,000 g, 10 min, 4° C.) to ensure click reagents were efficiently removed.
(§3) Heavy and light parent ion chromatograms associated with successfully identified peptides were extracted and compared using CIMAGE software as previously described^69. At least one ion of a co-eluting heavy-light pair must be accurately identified from a fragmentation event that occurred within the retention time window (±10 min) of parent ion elution. To ensure that the correct pair of peaks is quantified, chromatograms are extracted within a 10 ppm error tolerance of the predicted m/z, the signal-to-noise ratio must be >2.5 and the ‘co-elution correlation score’ and ‘envelope correlation score’ must have R^2 values ≥0.8. In addition, peptides detected as ‘singletons,’ where only the heavy ion of a peptide pair was identified, but for which passed all other filtering parameters, are given a default assigned ratio of ‘20,’ which is defined as any measured ratio that is ≥20.
(§4) To further eliminate false positives and any stochastic variability in the data, protein ratios were then determined by the median peptide ratio derived from three or more unique quantified peptides. Protein ratios that complied with these criteria from a single experiment were then averaged with ratios acquired from ≥3 replicates to provide final values for each type of experiment in both cell lines with both probes. […] Most importantly, there are no robustly measured ratios for proteins identified as probe 1 targets that had measured ratios of ˜1 with probe 2. Probe targets in HEK293T and MDA-MB-231 cells represent data combined from ≥3 independent biological replicates with each cell type performed with several independent batches of synthesized probes over a period of almost two years.
(§5) Analogous experiments were also performed with the aryl hydrazine probe 2 (1 mM, 0.5 hour), which furnished a larger list of high-reactivity proteins (33 in total; Table 3) that contained several of the targets of probe 1 (compared in Table 4), as well as additional proteins that may reflect an expanded chemical reactivity for probe 2.

[2] = target: T2, CTSA Lysosomal protective protein (P10619) (Homo sapiens, UniProt P10619); experiment: SILAC RP-ABPP; format: cell-based; conditions: SILAC H/L
T2 construct: In Situ Labelling of Cells with Hydrazine Probes for MS Experiments; endogenous in cells; host or cells: HEK293T and/or MDA-MB-231
T2 sequence (P10619 29-480): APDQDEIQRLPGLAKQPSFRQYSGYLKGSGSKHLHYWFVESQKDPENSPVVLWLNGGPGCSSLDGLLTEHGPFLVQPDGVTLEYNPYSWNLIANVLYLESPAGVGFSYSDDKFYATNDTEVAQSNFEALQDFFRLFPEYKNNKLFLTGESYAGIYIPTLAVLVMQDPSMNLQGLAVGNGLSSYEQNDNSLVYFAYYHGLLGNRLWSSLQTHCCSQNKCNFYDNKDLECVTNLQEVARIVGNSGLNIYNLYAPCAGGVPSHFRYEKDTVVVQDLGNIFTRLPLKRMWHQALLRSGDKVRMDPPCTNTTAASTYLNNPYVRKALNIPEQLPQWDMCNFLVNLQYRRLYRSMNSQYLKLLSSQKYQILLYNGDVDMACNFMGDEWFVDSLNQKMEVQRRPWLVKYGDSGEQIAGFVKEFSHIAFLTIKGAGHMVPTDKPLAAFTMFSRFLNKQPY
Experimental: as §1, §2, §3, §4, §5

[3] = probe 1 vs probe 1+10x probe 3, cell line not given
[4] = probe 2 1 mM 0.5 h vs probe 4, MDA-MB-231
[5] = probe 2 vs probe 2+10x probe 4, MDA-MB-231

| enrichment ratioavg [1, 4] | competition ratioavg [1, 5] | enrichment ratioavg [2, 4] | competition ratioavg [2, 5] | SMILES | competition ratioavg [1, 3] | enrichment ratioavg ([2]; probe 1 3 mM 0.5 h vs probe 3, cell line not given) | competition ratioavg [2, 3] |
| --- | --- | --- | --- | --- | --- | --- | --- |
|  |  |  |  | C#CCNN.Cl [probe 1, prop-2-yn-1-ylhydrazine hydrochloride] | 5 | 4 | 4 |
| 20 | 5 | 9 | 4 | C#CCCNC(=O)c1ccc(NN)cc1.Cl [probe 2, N-(but-3-yn-1-yl)-4-hydrazinylbenzamide hydrochloride] |  |  |  |
